Where two headings read alike, the source gives them in different places.
Legend:
[1] = test system: whitetop (Cardaria draba) seeds; assay: Protocol 1 clean seed dip treatment and germination test, whitetop; assay type: in vivo; settings: non-soil environment
Experimental: (§1) All seeds for a Protocol 1 Test were removed from the flower parts and used as clean seeds. A treatment consisted of 100 seeds with four replications for a total of at least 400 seeds per treatment. In some cases extra seeds were treated to accommodate additional germination tests, if needed. In lots of 100, seeds were first rinsed with water to simulate a wash treatment. These pre-wetted seeds were then dipped for one minute in one of the Treatment Rinse percent solutions per volume as show below. Three quality glyphosate products were used. […] The inert ingredients typically comprise tallow amine, lecithin, algaecide and purified water. […] The surfactants added to the percent solution were a penetrator, comprising methylated seed oil, and a spreader, comprising polyether-polymethylsiloxane-copolymer polyether or silicone polyether copolymer.
(§2) Seeds were stirred during the dip to assure all seeds were exposed to the solution. Treated seeds were allowed to air dry with the time to dry recorded. Three main seed types were used in the Protocol 1 Test: whitetop (Cardaria draba), spotted knapweed (Centauria maculosa), and diffuse knapweed (Centauria. diffusa). Two additional seed types were used for one treatment each, Russian thistle (Salsola tragus) and Scotch thistle (Onopordum acanthium).
(§3) When seeds were thoroughly dry after treatment they were packaged and sent for germination testing. […]

[2] = test system: Scotch thistle (Onopordum acanthium) seeds; settings: soil application of glyphosate; cited from earlier work
[3] = test system: spotted knapweed (Centauria maculosa) seeds; assay: Protocol 1 clean seed dip treatment and germination test, spotted knapweed; assay type: in vivo; settings: non-soil environment
Experimental: as §1, §2, §3

[4] = test system: diffuse knapweed (Centauria. diffusa) seeds; assay: Protocol 1 clean seed dip treatment and germination test, diffuse knapweed; assay type: in vivo; settings: non-soil environment
Experimental: as §1, §2, §3

[5] = test system: Scotch thistle (Onopordum acanthium) seeds; assay: Protocol 1 clean seed treatment, germination test in soil environment, Scotch thistle; assay type: in vivo
Experimental: as §1, §2, §3

[6] = test system: Russian thistle (Salsola tragus) seeds; assay: Protocol 1 clean seed dip treatment and germination test, Russian thistle; assay type: in vivo; settings: non-soil environment
Experimental: as §1, §2, §3

O=C(O)CNCP(=O)(O)O [glyphosate]
control, considering treated seeds that may grow to reproductive maturity [1]: 95% | control of Scotch thistle [2]: not controlled | control, considering treated seeds that may grow to reproductive maturity [3]: 100% | control, considering treated seeds that may grow to reproductive maturity [4]: 99% | control, considering treated seeds that may grow to reproductive maturity ([5]; Scotch thistle, non-soil environment): 100% | control of Scotch thistle ([5]; direct application of glyphosate to the seed, then placed in soil to germinate): controlled | control, considering treated seeds that may grow to reproductive maturity [6]: 72%
